The record followed here is patent publication US12384753B2, “17-beta-hydroxysteroid dehydrogenase type 13 inhibitors and methods of use thereof” (Enanta Pharmaceuticals, Inc., priority 2021, dated 2025).

Each structure is given as a SMILES string.

In the experiment the target is Recombinant human HSD17B13 (Homo sapiens (Human), UniProt Q7Z5P4). In words: HSD17B13 rapid-fire mass spectrometry assay (RF/MS assay). Conditions: inhibition of HSD17B13; LTB4 10 μM, NAD+ 0.5 mM, RT 3 h; IC50 ranges A-E. Type of experiment: biochemical. Summed up: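 Sf9-expressed human HSD17B13 (80 nM) with 10 μM LTB4 and 0.5 mM NAD+, incubated with compound (0–100 μM) for 3 h at RT in Tris pH 7.5/BSA/Tween-20. After formic acid quench, LTB4 conversion to 12-oxo-LTB4 measured by RapidFire MS/MS. IC50 from normalised residual activity, duplicates.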
Recombinant human HSD17B13, sequence (Q7Z5P4 20-300): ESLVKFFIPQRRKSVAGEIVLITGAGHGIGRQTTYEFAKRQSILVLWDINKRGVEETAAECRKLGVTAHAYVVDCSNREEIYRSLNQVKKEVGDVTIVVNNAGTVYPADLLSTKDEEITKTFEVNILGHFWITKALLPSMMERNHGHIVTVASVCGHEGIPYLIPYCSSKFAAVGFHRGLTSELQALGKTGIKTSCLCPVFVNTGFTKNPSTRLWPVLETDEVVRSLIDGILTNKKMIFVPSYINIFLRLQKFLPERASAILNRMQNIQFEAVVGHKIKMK
As for `COc1cc(C(=O)O)c(F)cc1NS(=O)(=O)c1coc(-c2ccc(C3CCC4(CC3)OCCO4)cc2)n1` [Example 618], the IC50 – broadly, the concentration needed to halve the response being measured – is less than 100 nM.

Consider `COc1cc(C(=O)O)c(F)cc1NS(=O)(=O)c1csc(-c2ccc([C@H]3CC[C@@H](C(C)C)CC3)cc2C(F)(F)F)n1` [Example 619], for which the IC50 is 100 to 500 nM. As to `COc1cc(C(=O)O)c(F)cc1NS(=O)(=O)c1csc(-c2ccc([C@H]3CC[C@H](C(C)C)CC3)cc2C(F)(F)F)n1` [Example 620], the IC50 is less than 100 nM. As for `COc1cc(C(=O)O)c(F)cc1NS(=O)(=O)c1ncc(-c2ccc([C@H]3CC[C@H](C(F)(F)F)CC3)cc2)s1` [Example 621], the IC50 was in the range of 100 to 500 nM. `COc1cc(C(=O)O)c(F)cc1NS(=O)(=O)c1cc(-c2ccc(C3CCCCC3)cc2)ccn1` [Example 622]: the IC50 is 500 to 1000 nM. With `COc1cc(C(=O)O)c(F)cc1NS(=O)(=O)c1coc(-c2ccc([C@H]3CC[C@@H](O)CC3)cc2)n1` [Example 623], the IC50 fell in the range of 100 to 500 nM. On to `COc1cc(C(=O)O)c(F)cc1NS(=O)(=O)c1csc(-c2ccc(CC3CCCCC3)cc2)n1` [Example 624], for which the IC50 was 100 to 500 nM.

In the case of `COc1cc(C(=O)O)c(F)cc1NS(=O)(=O)c1csc(-c2ccc(CCC(C)C)cc2)n1` [Example 625], the concentration for half-maximal inhibition (IC50) lay in the range of 100 to 500 nM. `COc1cc(C(=O)O)c(F)cc1NS(=O)(=O)c1cnc(-c2ccc([C@H]3CC[C@@H](C)CC3)cc2)s1` [Example 626]: the half-inhibitory concentration (IC50) is 100 to 500 nM. As to `COc1cc(C(=O)O)c(F)cc1NS(=O)(=O)c1cnc(-c2ccc([C@H]3CC[C@H](C)CC3)cc2)s1` [Example 627], the 50% inhibitory concentration (IC50) is less than 100 nM. Under `CCCCC[C@H]1CC[C@H](c2ccc(-c3ncc(S(=O)(=O)Nc4cc(F)c(C(=O)O)cc4OC)s3)cc2)CC1` [Example 628] stands 100 to 500 nM.

As to `COc1cc(C(=O)O)c(F)cc1NS(=O)(=O)c1ccc2sc(-c3ccc(C4CCCCC4)cc3)nc2c1` [Example 629], the IC50 was in the range of 100 to 500 nM.

With `COc1cc(C(=O)O)c(F)cc1NS(=O)(=O)c1coc(-c2ccc(C3CCC(OC(=O)N4CCOCC4)CC3)cc2)n1` (stereo not drawn) [Example 630], the half-inhibitory concentration (IC50) was less than 100 nM. Under `COc1cc(C(=O)O)c(F)cc1NS(=O)(=O)c1csc(-c2ccc(NC3CCC(C)(C)CC3)cc2)n1` [Example 631] stands less than 100 nM; under `CC[C@H]1CC[C@H](c2ccc(-c3nc4cc(S(=O)(=O)Nc5cc(F)c(C(=O)O)cc5OC)ccc4s3)cc2)CC1` [Example 632], 100 to 500 nM. The figure for `COc1cc(C(=O)O)c(F)cc1NS(=O)(=O)c1ncc(-c2ccc(C3=CCC(C(C)(C)C)CC3)cc2)s1` (stereo not drawn) [Example 633] is 100 to 500 nM. In the case of `COc1cc(C(=O)O)c(F)cc1NS(=O)(=O)c1csc(-c2ccc(-c3ccsc3)cc2)n1` [Example 634], the IC50 was in the range of 100 to 500 nM. Under `COc1cc(C(=O)O)c(F)cc1NS(=O)(=O)c1csc(-c2ccc(-c3ccccn3)cc2)n1` [Example 635] stands 100 to 500 nM. Under `COc1cc(C(=O)O)c(F)cc1NS(=O)(=O)c1csc(-c2ccc(-c3csc4ccccc34)cc2)n1` [Example 636] stands 100 to 500 nM; under `COc1cc(C(=O)O)c(F)cc1NS(=O)(=O)c1csc(-c2ccc(-c3cc4ccccc4[nH]3)cc2)n1` [Example 637], 100 to 500 nM; under `COc1cc(C(=O)O)c(F)cc1NS(=O)(=O)c1csc(-c2ccc(-c3ccc4[nH]ccc4c3)cc2)n1` [Example 638], less than 100 nM.

In the case of `COc1cc(C(=O)O)c(F)cc1NS(=O)(=O)c1csc(-c2ccc(-c3ccc4ncccc4c3)cc2)n1` [Example 639], the IC50 is less than 100 nM. The figure for `CC[C@H]1CC[C@H](c2ccc(-c3ccnc(S(=O)(=O)Nc4cc(F)c(C(=O)O)cc4OC)c3)cc2)CC1` [Example 640] is 100 to 500 nM; for `COc1cc(C(=O)O)c(F)cc1NS(=O)(=O)c1cc(-c2ccc([C@H]3CC[C@H](C(F)(F)F)CC3)cc2)ccn1` [Example 641] it is 100 to 500 nM. Under `CC[C@H]1CC[C@H](c2ccc(-c3ncc(S(=O)(=O)Nc4cc(F)c(C(=O)O)cc4OC)s3)cc2)CC1` [Example 642] stands 100 to 500 nM; under `COc1cc(C(=O)O)c(F)cc1NS(=O)(=O)c1cnc(-c2ccc(C3CCC(c4ccccc4)CC3)cc2)s1` (stereo not drawn) [Example 643], 100 to 500 nM.

In the case of `COc1cc(C(=O)O)c(F)cc1NS(=O)(=O)c1csc(-c2ccc(-c3cn[nH]c3)cc2)n1` [Example 644], the IC50 lay in the range of 100 to 500 nM. The figure for `COc1cc(C(=O)O)c(F)cc1NS(=O)(=O)c1csc(-c2ccc(-c3cccs3)cc2)n1` [Example 645] is 100 to 500 nM.

On to `COc1cc(C(=O)O)c(F)cc1NS(=O)(=O)c1csc(-c2ccc(-c3cc4ccccc4o3)cc2)n1` [Example 646], for which the IC50 was less than 100 nM. In the case of `COc1cc(C(=O)O)c(F)cc1NS(=O)(=O)c1csc(-c2ccc(-c3cccc4[nH]ccc34)cc2)n1` [Example 647], the IC50 is less than 100 nM. Consider `CC[C@H]1CC[C@H](c2ccc(-c3nc(S(=O)(=O)Nc4ccc5c(O)cccc5c4OC)cs3)cc2)CC1` [Example 648], for which the IC50 was 1000 to 100000 nM. Under `COc1c(NS(=O)(=O)c2csc(-c3ccc([C@H]4CC[C@H](C(F)(F)F)CC4)cc3)n2)ccc2c(O)cccc12` [Example 649] stands 1000 to 100000 nM; under `COc1cc(C(=O)O)c(F)cc1NS(=O)(=O)c1ccc2sc(-c3ccc([C@H]4CC[C@H](C(F)(F)F)CC4)cc3)nc2c1` [Example 650], 100 to 500 nM; under `COc1cc(C(=O)O)c(F)cc1NS(=O)(=O)c1csc(-c2ccc(-c3cnoc3)cc2)n1` [Example 651], 100 to 500 nM. The figure for `COc1cc(C(=O)O)c(F)cc1NS(=O)(=O)c1csc(-c2ccc(-c3ccncc3)cc2)n1` [Example 652] is 100 to 500 nM; for `COc1cc(C(=O)O)c(F)cc1NS(=O)(=O)c1csc(-c2ccc(-c3ccc4c(c3)NCCO4)cc2)n1` [Example 653] it is less than 100 nM; for `COc1cc(C(=O)O)c(F)cc1NS(=O)(=O)c1csc(-c2ccc(-c3ccc4cnccc4c3)cc2)n1` [Example 654] it is 100 to 500 nM.

Take `COc1cc(C(=O)O)c(F)cc1NS(=O)(=O)c1csc(-c2ccc(-c3cncc(F)c3)cc2)n1` [Example 655]: the 50% inhibitory concentration (IC50) lay within 100 to 500 nM. Under `COc1cc(C(=O)O)c(F)cc1NS(=O)(=O)c1cnn(-c2ccc(C3CCCCC3)cc2)c1` [Example 656] stands 100 to 500 nM; under `CC[C@H]1CC[C@H](c2ccc(-c3nc4ccc(S(=O)(=O)Nc5cc(F)c(C(=O)O)cc5OC)cc4s3)cc2)CC1` [Example 658], 1000 to 100000 nM; under `COc1cc(C(=O)O)c(F)cc1NS(=O)(=O)c1ccc2nc(-c3ccc([C@H]4CC[C@H](C(F)(F)F)CC4)cc3)sc2c1` [Example 659], 500 to 1000 nM. For the molecule `CC1(C)CCC(c2ccc(-c3nc(S(=O)(=O)Nc4ccc(C(=O)O)cc4)cs3)cc2)CC1` [Example 660], the concentration for half-maximal inhibition (IC50) was in the range of 100 to 500 nM. Regarding `COc1cc(C(=O)O)c(F)cc1NS(=O)(=O)c1ccc2nc(-c3ccc(C4CCCCC4)cc3)sc2c1` [Example 661], the IC50 lay in the range of 100 to 500 nM. Take `COc1cc(C(=O)O)c(F)cc1NS(=O)(=O)c1ccc2sc(-c3ccc(C4CCCC4)cc3)nc2c1` [Example 662]: the IC50 lay within 100 to 500 nM. As for `COc1cc(C(=O)O)c(F)cc1NS(=O)(=O)c1ccc2sc(-c3ccc(C4CCC4)cc3)nc2c1` [Example 663], the concentration for half-maximal inhibition (IC50) is 100 to 500 nM. As for `COc1cc(C(=O)O)c(F)cc1NS(=O)(=O)c1ccc2sc(-c3ccc(C4CCC(C)(C)CC4)cc3)nc2c1` [Example 664], the IC50 lay in the range of 100 to 500 nM.

On to `COc1cc(C(=O)O)c(F)cc1NS(=O)(=O)c1nc(-c2ccc(C3CCCCC3)cc2)sc1C` [Example 665], for which the IC50 lay in the range of 100 to 500 nM. The figure for `COc1cc(C(=O)O)c(F)cc1NS(=O)(=O)c1nc(-c2ccc(C3CCC(C)(C)CC3)cc2)sc1C` [Example 666] is 100 to 500 nM. `CC[C@H]1CC[C@H](c2ccc(-c3nc(S(=O)(=O)Nc4cc(F)c(C(=O)O)cc4OC)c(C)s3)cc2)CC1` [Example 667]: the IC50 lay within 100 to 500 nM. The figure for `COc1cc(C(=O)O)c(F)cc1NS(=O)(=O)c1ccc2sc(-c3ccc(-c4ccccc4)cc3)nc2c1` [Example 668] is 100 to 500 nM; for `COc1cc(C(=O)O)c(F)cc1NS(=O)(=O)c1ccc2sc(-c3ccc(C4CC4)cc3)nc2c1` [Example 669] it is 100 to 500 nM; for `CC[C@H]1CC[C@H](c2ccc(-c3nc4cc(S(=O)(=O)Nc5cc(F)c(C(=O)O)cc5OC)ccc4o3)cc2)CC1` [Example 670, 4-((2-(4-((1r,4r)-4-ethylcyclohexyl)phenyl)benzo[d]oxazole)-5-sulfonamido)-2-fluoro-5-methoxybenzoic acid] it is 100 to 500 nM. The figure for `COc1cc(C(=O)O)cc(F)c1NS(=O)(=O)c1csc(-c2ccc(C3CCC(C)(C)CC3)cc2C(F)(F)F)n1` [Example 671] is less than 100 nM; for `COc1cc(C(=O)O)c(F)cc1NS(=O)(=O)c1coc(-c2ccc(C3=CCC(C(C)C)CC3)cc2C(F)(F)F)n1` (stereo not drawn) [Example 672] it is less than 100 nM. With `COc1cc(C(=O)O)c(F)cc1NS(=O)(=O)c1coc(-c2ccc([C@H]3CC[C@@H](C(C)C)CC3)cc2C(F)(F)F)n1` [Example 673], the IC50 is 100 to 500 nM.

On to `COc1cc(C(=O)O)c(F)cc1NS(=O)(=O)c1coc(-c2ccc([C@H]3CC[C@H](C(C)C)CC3)cc2C(F)(F)F)n1` [Example 674], for which the IC50 was less than 100 nM.

For the molecule `COc1cc(C(=O)O)c(F)cc1NS(=O)(=O)c1coc(-c2ccc(C3=CCC(C)(C)CC3)cc2C(F)(F)F)n1` [Example 675], the IC50 is less than 100 nM. The figure for `COc1cc(C(=O)O)c(F)cc1NS(=O)(=O)c1coc(-c2ccc(C3CCC(C)(C)CC3)cc2C(F)(F)F)n1` [Example 676] is less than 100 nM; for `COc1cc(C(=O)O)c(F)cc1NS(=O)(=O)c1coc(-c2ccc(C3=CCC(C(F)(F)F)CC3)cc2C(F)(F)F)n1` (stereo not drawn) [Example 677] it is less than 100 nM.

Regarding `COc1cc(C(=O)O)c(F)cc1NS(=O)(=O)c1coc(-c2ccc([C@H]3CC[C@@H](C(F)(F)F)CC3)cc2C(F)(F)F)n1` [Example 678], the IC50 is less than 100 nM.
